Test results taken from US20230321012A1 (priority 2021, published 2023).

How the values were obtained:
[1] = tested on: polyamine transport in T cells (CD4+ and CD4- lymphocytes, whole human blood); experiment: Ex vivo blood-based PD bioassay: C5 (fluorescent spermine) uptake into stimulated T cells by FACS; format: cell-based
Protocol: To evaluate the target engagement activity of AMXT 1501 after oral administration in human patients, an ex vivo PD assay assessing lymphocyte spermine uptake and inhibition of uptake by AMXT 1501 was developed. Briefly, uptake of a fluorescent-labeled spermine analog conjugate (Fl-Spm, Compound 5, C5, Annereau, J. P., et al., A fluorescent biomarker of the polyamine transport system to select patients with AML for F14512 treatment. Leuk Res. 2010 October; 34(10):1383-9) was assayed by fluorescence-activated cell sorting (FACS) analysis in CD4+ and CD4^− T cells in human blood samples stimulated with anti-CD3+ and anti-CD28+ antibodies.
Polyamine uptake in blood lymphocytes (CD4^+ or CD8^+ T cells) was measured at the same time points as the PK levels for AMXT 1501 were measured. Comparisons were made between uptake in the pre-treatment sample and samples taken over time following dosing.
Pharmacodynamic Bioassay. The purpose of this whole blood assay was to quantify the inhibition of polyamine transport in T cells in human subjects receiving AMXT 1501. Collected whole blood from subjects receiving AMXT 1501 was diluted with serum-free media and stimulated with anti-CD3 (T cell receptor engagement) and anti-CD28 (co-stimulatory signal) to drive T cell activation and proliferation for a total of three days. During the last 12-18 hours of culture, a fluorescently-labeled spermine analog (Fl-Spm, Compound 5, C5) was added to the in vitro culture to monitor polyamine uptake into cells. The functional activity (e.g., inhibitory effect) of AMXT 1501 on C5 uptake by T cells was then determined using flow cytometry by measuring the frequency and median fluorescence intensity (MFI) of C5 in T cells. Activation and proliferation of T cells is required for the uptake of C5; however, in the presence of high concentrations of AMXT 1501 in vitro, C5 uptake is inhibited despite active proliferation of T cells. Therefore, a whole blood sample spiked with high levels of AMXT 1501 prior to culture will be used as a positive control for each subject in this assay. […]

[2] = mouse, in vivo
[3] = AMXT 1501 level in tumor biopsy of a melanoma patient; settings: male, human, in vivo

## CCCCCCCCCCCCCCCC(=O)NCCCC[C@@H](N)C(=O)NCCCNCCCCNCCCN [AMXT 1501, D-lys(palmitoyl)-spermine]
[1]; Homo sapiens, T-cell, read-out: ED50, inhibition of fluorescent-labeled spermine uptake
  EC50: ~75 nM
[1]; several Part 2 Cohort 3 patients, Day 7-8, oral AMXT 1501 dicaprate, preliminary
  ex vivo target engagement activity in patient whole blood: sustained AMXT 1501 target engagement activity
[1]; whole human blood, absence of DFMO
  concentration of maximal fluorescent-labeled spermine uptake inhibition: 250 nM
[2]
  effect of DFMO on AMXT 1501 tumor retention: no effect
  tumor AUC, AMXT 1501: 152,000 hr*ng/mL
[2]; sc, 2.5 mg/kg
  tumor AUC0-∞, AMXT 1501: 138,000 hr*ng/mL
[3]
  Kp: 14.6
